The results in this text go back to patent EP4741395A1, “NOVEL COMPOUND SENSITIVE TO NITROGEN MONOXIDE AND PHARMACEUTICAL COMPOSITION COMPRISING SAME” (Omniamed Co. Ltd, priority 2023, dated 2025).

The nature of assay [1]: DAF-2 assay of NO scavenging activity without and with H2O2 (ROS). Format: biochemical. Conditions: SNAP 100 µM, DAF-2 10 µM, 3 hours, 37°C; for NO Scavenging Activity (%) (Mean±SD) With H2O2: H2O2 1 mM. The method, then: The pharmaceutical composition sensitive to nitrogen monoxide including the compound according to each of Examples 23 to 28 and 32 may have scavenging activity for reactive oxygen species (ROS). NO scavenging activity of the pharmaceutical composition was evaluated through a DAF-2 assay.
Specifically, to a 100 µM solution of SNAP, the compound synthesized in each of the Examples was added at a concentration of the following Table 2, and reacted. Then 10 µM of DAF-2 was added thereto, followed by a reaction for 3 hours in a 37°C incubator.
Additionally, a stock solution of H2O2 (10 M) was added to the reaction solution so that SNAP and H2O2 had final concentrations of 100 µM and 1 mM, respectively. Then, the compound synthesized in each of the Examples was added thereto at a concentration of the following Table 11, followed by a reaction in the same manner, and NO scavenging activity was calculated by Equation 1.

The next assay relates to Raw 264.7 cell line. The experiment in a line: NO scavenging activity in LPS-treated immune cells (Griess reagent). In kind it is cell-based. Conditions: Mus musculus, RAW264.7, Raw 264.7, LPS 500 ng/mL, 24 hours, read-out: NO Scavenging Activity (%) (Mean±SD). The method, then:
Raw 264.7 cell line was seeded in a 48-well plate at a density of 8×10^4 cells/well, and cultured at 37°C in a DMEM medium including 10% FBS, 100 U/mL of penicillin and 100 µg/mL of streptomycin.
The medium was cultured overnight, and then replaced with a fresh medium including 10 µM of the pharmaceutical composition sensitive to nitrogen monoxide including the compound of each of Examples 1 to 30 and 500 ng/mL of LPS, and the fresh medium was cultured again for another 24 hours.
Lastly, in order to measure the amount of NO produced, the amount of NO2^- present in the cell culture medium was measured using a Griess reagent (sulfanilamide, N-1-naphthylethylenediamine dihydrochloride). Specifically, 100 µL of a Griess reagent was mixed with a mixture solution of 50 µL of the cell culture medium and 50 µL of PBS. The mixture solution was reacted for 10 minutes in a well plate, and absorbance thereof at 540 nm was measured.

Assay [2] relates to splenocytes. Put plainly: NO scavenging activity in Concanavalin A-treated splenocytes (Griess assay). In kind it is cell-based, C57BL/6 mouse. The note with it: Mus musculus, Splenocyte, Concanavalin A 5 µg/mL, 72 hours, read-out: NO Scavenging Activity (%) (Mean±SD). The method, then:
(§1) A spleen was isolated from an 8-week-old C57BL/6 mouse, and splenocytes were isolated using a physical method.
(§2) The separated splenocytes were diluted to a concentration of 5×10^6 cells/mL in a RPMI 1640 medium including 10% FBS, 100 U/mL of penicillin and 100 µg/mL of streptomycin, and the diluted splenocytes were dispensed at 500 µL/well into a 48-well plate and 100 µL/well into a 96-well plate, and cultured for 72 hours in an incubator. The splenocytes were treated with Concanavalin A (5 µg/mL) when dispensed to induce an immune response, and herein, […] of the pharmaceutical composition including the compound according to each of the Examples was also added thereto. After 72 hours, the supernatant was collected, and the level of remaining NO was checked through a Griess assay, and calculated by the following Equation 4.
A general note: Nitrite, measured by Griess reagent, commonly stands in for NO production.

The next assay concerns IFN-γ. Put plainly: IFN-γ reduction activity in Concanavalin A-treated splenocytes (quantitative ELISA). Format: cell-based, C57BL/6 mouse. Conditions: Mus musculus, Splenocyte, Concanavalin A 5 µg/mL, 72 hours, read-out: IFN-γ Reduction Activity (%) (Mean±SD). The procedure: as §1, §2
NO is one of important inflammatory mediators, and may increase the level of inflammatory cytokine. Concanavalin A (5 µg/mL), which induces an immune response in splenocytes, and the compound of each of Examples were treated in a concentration-dependent manner to check whether the level of IFN-γ, a representative inflammatory cytokine, was reduced. The supernatant was collected 72 hours after the treatment, and analyzed using a quantitative enzyme-linked immunosorbent assay (Quantitative-ELISA).
(In general: ELISA stands for enzyme-linked immunosorbent assay.)

For assay [3], the system named is splenocytes. Put plainly: Inhibitory activity on cell proliferation in splenocytes (CCK-8 analysis). In kind it is cell-based, C57BL/6 mouse. The note with it: Mus musculus, Splenocyte, Concanavalin A 5 µg/mL, 72 hours, read-out: Inhibitory Activity on Cell Proliferation (%) (Mean±SD).
Assay [4] is described as follows: DAF-2 assay of NO scavenging activity (NO donor SNAP). Format: biochemical. Conditions: DAF-2 10 µM, SNAP 100 µM, PBS, 3 hours, 37°C. The method, then: NO scavenging activity of the pharmaceutical composition sensitive to nitrogen monoxide including the compound according to each of Examples 1 to 22, 29 to 31, and 33 to 35 was evaluated through a DAF-2 assay.
Specifically, a reagent stock solution was made using DMSO (dimethyl sulfoxide) in order to prepare 5 mM of DAF-2, 100 mM of SNAP and 5 mM of the compound synthesized in each of the Examples, and for the reaction, the solution was added to a PBS (phosphate buffered saline) solution so that DAF-2, SNAP and the compound had final concentrations of 10 µM, 100 µM and the concentration of Table 1, respectively, followed by a reaction for 3 hours in a 37°C incubator.

A further assay has as its target JAK 1 (Homo sapiens, UniProt P23458). Put plainly: JAK Human TK kinase enzymatic radiometric assay (Eurofins), JAK 1. The note with it: value close to 100 indicates low JAK activity of the compound.

JAK 1, sequence (P23458 whole entry): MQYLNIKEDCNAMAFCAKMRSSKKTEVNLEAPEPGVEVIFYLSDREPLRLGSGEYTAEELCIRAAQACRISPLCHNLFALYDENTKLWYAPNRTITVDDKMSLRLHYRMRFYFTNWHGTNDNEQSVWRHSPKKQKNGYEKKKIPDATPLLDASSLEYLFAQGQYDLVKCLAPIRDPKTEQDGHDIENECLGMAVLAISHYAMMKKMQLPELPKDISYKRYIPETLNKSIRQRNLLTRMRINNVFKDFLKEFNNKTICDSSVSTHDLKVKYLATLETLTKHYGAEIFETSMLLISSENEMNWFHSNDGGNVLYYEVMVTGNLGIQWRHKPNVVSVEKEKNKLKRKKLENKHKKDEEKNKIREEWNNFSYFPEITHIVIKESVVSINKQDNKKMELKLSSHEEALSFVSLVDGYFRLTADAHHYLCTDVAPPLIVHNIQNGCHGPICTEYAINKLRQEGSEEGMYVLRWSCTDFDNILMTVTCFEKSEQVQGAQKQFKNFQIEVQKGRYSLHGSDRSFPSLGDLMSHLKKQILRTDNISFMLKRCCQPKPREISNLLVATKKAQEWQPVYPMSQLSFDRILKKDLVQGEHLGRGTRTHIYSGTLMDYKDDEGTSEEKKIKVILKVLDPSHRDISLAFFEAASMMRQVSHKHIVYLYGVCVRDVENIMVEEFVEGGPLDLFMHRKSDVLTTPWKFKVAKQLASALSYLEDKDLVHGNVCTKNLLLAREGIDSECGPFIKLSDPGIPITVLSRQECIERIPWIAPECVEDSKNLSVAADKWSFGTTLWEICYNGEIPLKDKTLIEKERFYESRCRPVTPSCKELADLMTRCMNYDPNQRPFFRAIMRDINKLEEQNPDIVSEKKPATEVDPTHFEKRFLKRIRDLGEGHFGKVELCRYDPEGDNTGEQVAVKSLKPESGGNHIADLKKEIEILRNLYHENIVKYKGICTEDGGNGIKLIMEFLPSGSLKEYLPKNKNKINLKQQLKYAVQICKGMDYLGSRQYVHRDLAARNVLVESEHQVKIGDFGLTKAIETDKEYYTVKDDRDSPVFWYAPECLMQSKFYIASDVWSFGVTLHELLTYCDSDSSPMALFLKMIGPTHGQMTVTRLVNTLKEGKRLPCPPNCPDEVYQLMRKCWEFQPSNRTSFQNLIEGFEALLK
Excerpt for JAK 1: For the compounds of the Examples, JAK activity of each of the compounds was verified using the JAK Human TK Kinase Enzymatic Radiometric Kinase Profiler Assay service provided by Eurofins Scientific.
The activity was verified after inducing a reaction at the JAK 1, 2 and 3 active sites using radioactively labeled ATP.

For the compound `C[C@@H]1CCN(C(=O)CC#N)C[C@@H]1N(C)c1ncnc2c1ccn2C(=O)Nc1ccccc1NC(=O)OCc1ccc(B2OC(C)(C)C(C)(C)O2)cc1` [Example 25, 4-(4,4,5,5-tetramethyl-1,3,2-dioxaborolan-2-yl)benzyl (2-(4-(((3R,4R)-1-(2-cyanoacetyl)-4-methylpiperidin-3-yl) (methyl)amino)-7H-pyrrolo[2,3-d]pyrimidine-7-carboxamido)phenyl) carbamate], the “NO Scavenging Activity (%) (Mean±SD) Without H2O2” value in assay [1] (compound 10 µM) is 42.36 ±1.91%. The “NO Scavenging Activity (%) (Mean±SD) With H2O2” value in assay [1] (compound 10 µM) is 89.96 ±0.19%. In addition, the activity at 10 µM was determined as 63.2 ± 0.56% with Raw 264.7 cell line, 100% with splenocytes [2] and 98.7 ± 0.04% in the assay on IFN-γ. For the same compound, the inhibition at 10 µM in the assay with splenocytes [3] came out at 81.4 ± 7.94%.
In the case of `CC[C@@H]1CN(C(=O)NCC(F)(F)F)C[C@@H]1c1cnc2cnc3c(ccn3C(=O)Nc3ccc(N(C)C)cc3N)n12` [Example 30, N-(2-amino-4-(dimethylamino)phenyl)-8-((3R,4S)-4-ethyl-1-((2,2,2-trifluoroethyl)carbamoyl)pyrrolidin-3-yl)-3H-imidazo[1,2-a]pyrrolo[2,3-e]pyrazine-3-carboxamide], the “NO Scavenging Activity (%) (Mean±SD)” value in assay [4] (compound 1 µM) was found to be 83.14 ±2.29%; in assay [4] (compound 5 µM) it was 86.44 ±1.93%; in assay [4] (compound 10 µM), 88.19 ±1.75%. Also, the activity at 10 µM with Raw 264.7 cell line came out at 91.6 ± 0.68%; in the assay on splenocytes [2], 98.1 ± 0.09%; in the assay with IFN-γ it was 91.5 ± 1.37%. Moreover, the inhibition at 10 µM in the assay on splenocytes [3] came out at 55 ± 8.48%.
As to `COc1ccc(NC(=O)OCc2ccc(B3OC(C)(C)C(C)(C)O3)cc2)c(NC(=O)n2ccc3c(N(C)[C@H]4CN(C(=O)CC#N)CC[C@H]4C)ncnc32)c1` [Example 27, 4-(4,4,5,5-tetramethyl-1,3,2-dioxaborolan-2-yl)benzyl (2-(4-(((3R,4R)-1-(2-cyanoacetyl)-4-methylpiperidin-3-yl) (methyl)amino)-7H-pyrrolo[2,3-d]pyrimidine-7-carboxamido)-4-methoxyphenyl)carbamate], the “NO Scavenging Activity (%) (Mean±SD) Without H2O2” value in assay [1] (compound 10 µM) was 59.31 ±0.55%. Further, in assay [1] (compound 10 µM), the “NO Scavenging Activity (%) (Mean±SD) With H2O2” value came out at 97.09 ±0.01%. In addition, the activity at 10 µM in the assay with Raw 264.7 cell line came to 59.3 ± 0.06%; in the assay with splenocytes [2], 77.6 ± 1.24%; with IFN-γ it was 74.6 ± 2.41%. Further, the inhibition at 10 µM in the assay on splenocytes [3] is 81.1 ± 9.03%.
On to `CC[C@@H]1CN(C(=O)NCC(F)(F)F)C[C@@H]1c1cnc2cnc3c(ccn3C(=O)Nc3ccccc3N)n12` [Example 29, N-(2-aminophenyl)-8-((3R,4S)-4-ethyl-1-((2,2,2-trifluoroethyl)carbamoyl)pyrrolidin-3-yl)-3H-imidazo[1,2-a]pyrrolo[2,3-e]pyrazine-3-carboxamide], for which the “NO Scavenging Activity (%) (Mean±SD)” value was determined as 3.68± 7.63% in assay [4] (compound 1 µM), 1.71± 4.16% in assay [4] (compound 5 µM) and 25.18 ±3.14% in assay [4] (compound 10 µM). Besides, the activity at 10 µM was determined as 90.1 ± 0.74% in the assay with Raw 264.7 cell line, 88.5 ± 0.47% with splenocytes [2] and 100% with IFN-γ. Further, the inhibition at 10 µM in the assay with splenocytes [3] stood at 78 ± 6.9%.
As to `C[C@@H]1CCN(C(=O)CC#N)C[C@@H]1N(C)c1ncnc2c1ccn2C(=O)N(C)CCN(C)C(=O)Nc1cc(N(C)C)ccc1NC(=O)OCc1ccc(B(O)O)cc1` [Example 23, (4-((((2-(3-(2-(4-(((3R,4R)-1-(2-cyanoacetyl)-4-methylpiperidin-3-yl)(methyl)amino)-N-methyl-7H-pyrrolo[2,3-d]pyrimidine-7-carboxamido)ethyl)-3-methylureido)-4-(dimethylamino)phenyl)carbamoyl)oxy)methyl)phenyl)boronic acid], the “NO Scavenging Activity (%) (Mean±SD) Without H2O2” value in assay [1] (compound 1 µM) was 21.08 ±0.77%; in assay [1] (compound 5 µM), 39.33 ±8.29%; in assay [1] (compound 10 µM) it was 52.96 ±6.23%. The figures for the “NO Scavenging Activity (%) (Mean±SD) With H2O2” value in assay [1] (compound 1 µM), in assay [1] (compound 5 µM) and in assay [1] (compound 10 µM) were 25.76 ±6.11%, 64.84 ±1.94% and 83.96 ±0.29%, respectively. In addition, the activity at 10 µM in the assay on Raw 264.7 cell line stood at 16.8 ± 0.7%; in the assay with splenocytes [2], 19.5 ± 0.65%; with IFN-γ, 68 ± 0.45%. Moreover, in the assay on splenocytes [3], the inhibition at 10 µM came out at 11.8 ± 2.08%. Further, the “JAK 1 Activity” value at JAK 1 (0.1 nM) is recorded as 94; at JAK 1 (1 nM), 90; on JAK 1 (10 nM), 100; on JAK 1 (100 nM), 83.
Turning to `C[C@@H]1CCN(C(=O)CC#N)C[C@@H]1N(C)c1ncnc2c1ccn2C(=O)N(C)CCN(C)C(=O)Nc1cc2c(cc1NC(=O)OCc1ccc(B(O)O)cc1)n(C)c(=O)n2C` [Example 24, (4-((((6-(3-(2-(4-(((3R,4R)-1-(2-cyanoacetyl)-4-methylpiperidin-3-yl)(methyl)amino)-N-methyl-7H-pyrrolo[2,3-d]pyrimidine-7-carboxamido)ethyl)-3-methylureido)-1,3-dimethyl-2-oxo-2,3-dihydro-1H-benzo[d]imidazol-5-yl)carbamoyl)oxy)methyl)phenyl)boronic acid], the results for the “NO Scavenging Activity (%) (Mean±SD) Without H2O2” value in assay [1] (compound 1 µM), in assay [1] (compound 5 µM) and in assay [1] (compound 10 µM) were 16.43 ±4.86%, 27.84 ±7.68% and 40.54 ±3.96%, respectively. Also, the “NO Scavenging Activity (%) (Mean±SD) With H2O2” value in assay [1] (compound 1 µM) is recorded as 34.66 ±3.80%; in assay [1] (compound 5 µM), 43.58 ±6.00%; in assay [1] (compound 10 µM), 53.52 ±3.09%. Also, the activity at 10 µM in the assay on Raw 264.7 cell line worked out at 9.8 ± 0.64%; in the assay on splenocytes [2], 78.3 ± 0.5%; in the assay with IFN-γ, 95.5 ± 0.15%. For the same compound, the inhibition at 10 µM in the assay with splenocytes [3] is 67.2 ± 4.67%.
Regarding `Cc1ccc(NC(=O)OCc2ccc(B3OC(C)(C)C(C)(C)O3)cc2)c(NC(=O)n2ccc3c(N(C)[C@H]4CN(C(=O)CC#N)CC[C@H]4C)ncnc32)c1` [Example 26, 4-(4,4,5,5-tetramethyl-1,3,2-dioxaborolan-2-yl)benzyl (2-(4-(((3R,4R)-1-(2-cyanoacetyl)-4-methylpiperidin-3-yl) (methyl)amino)-7H-pyrrolo[2,3-d]pyrimidine-7-carboxamido)-4-methylphenyl)carbamate], in assay [1] (compound 10 µM), the “NO Scavenging Activity (%) (Mean±SD) Without H2O2” value was 42.98 ±2.51%. Further, in assay [1] (compound 10 µM), the “NO Scavenging Activity (%) (Mean±SD) With H2O2” value came to 92.96 ±0.04%. Besides, the values for the activity at 10 µM in the assay on Raw 264.7 cell line, in the assay with splenocytes [2] and in the assay with IFN-γ were 73.7 ± 0.33%, 100% and 97.4 ± 0.1%, respectively. In addition, the inhibition at 10 µM in the assay with splenocytes [3] came to 75.6 ± 0.96%.
